These results are taken from PubChem BioAssay (NCI).

Each structure is given as a SMILES string. Several values for one entry are separate records, joined by “and”; a condition that tells them apart may be missing. Identical values can stand only once.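 Tested at 5 concentrations; 48 h exposure; 96-well plates; endpoints linearly interpolated, else capped at highest concentration. The concentration for 50% growth inhibition is given as GI50. At the TGI there is no net growth.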

What all share (assay): inhibition of tumour cell growth, NCI panel, 48 h
Assay [1] relates to PC-3 prostate.
The test system of assay [2] is CCRF-CEM leukemia.
The subject of assay [3] is BT-549 breast.
Assay [4] deals with OVCAR-8 ovarian.
Assay [5] deals with UO-31 renal.
For assay [6], the system named is SK-MEL-28 melanoma.
The subject of assay [7] is HCT-15 colon.
In assay [8] the test system is 786-0 renal.
The test system of assay [9] is NCI-H522 lung.
Assay [10] relates to EKVX NSCLC.

Regarding `CCOc1ccc(N(C)c2ccc(/C=C/C3=[N+](C)c4ccccc4C3(C)C)cc2)cc1`, the GI50 in assay [1] was 0.0759 µM; in assay [2] it was 0.0841 µM; in assay [3], 0.216 µM; in assay [4], 0.117 µM; in [5] it was 0.449 µM; in [6] it was 0.68 µM. Also, the GI50 in assay [7] is 0.596 µM; in assay [8], 0.562 µM; in assay [9], 0.167 µM. Besides, the TGI came to 0.793 µM in [1]; 0.647 µM in assay [2]; 1.16 µM in assay [3]; 1.17 µM in assay [4]; 1.79 µM in assay [5]; 2.11 µM in assay [6]. In addition, the TGI in [7] turned out to be 2.11 µM; in assay [8], 1.92 µM; in assay [9] it was 0.78 µM.
As for `CN1C(=O)C(c2c[nH]c3ccccc23)=C(c2c[nH]c3ccccc23)C1=O`, the GI50 in assay [1] was 4.46 µM; in assay [2], 7.84 µM; in assay [3] it was 8.14 µM; in [4] it was 7.67 µM; in assay [5], 2.64 µM; in assay [6] it was 7.84 µM. The GI50 in [7] was 5.77 µM; in [8] it was 9.85 µM; in assay [9], 4.69 µM. The TGI is more than 25 µM in assay [1]; more than 25 µM in assay [2]; 24.7 µM in [3]; more than 25 µM in [4]; more than 20.6 µM in [5]; more than 25 µM in assay [6]. Also, the results for the TGI in assay [7], in assay [8] and in [9] were more than 25 µM, more than 25 µM and 12.5 µM, respectively.
For the molecule `COc1ccc2c(c1)[C@@H](NC(C)=O)CCc1cc(OC)c(OC)c(OC)c1-2`, the TGI in [1] was more than 4.75 µM; in assay [2], more than 100 µM; in [4] it was 1.27 µM; in [5], more than 100 µM; in assay [6] it was more than 100 µM; in assay [10], more than 100 µM. In addition, the TGI in assay [7] is more than 30.9 µM; in assay [8], more than 100 µM.
In the case of `COc1ccc(-c2nc3sc(-c4cc(OC)c(OC)c(OC)c4)nn3c2/C=C2/C(=O)Nc3ccc(F)cc32)cc1`, the GI50 is 24.7 µM in assay [1]; 5.49 µM in assay [2]; 14.9 µM in assay [3]; 5.34 µM in assay [4]; 15 µM in [5]; 9.58 µM in assay [6]. The GI50 was 2.5 µM in [7], 16 µM in [8] and 5.44 µM in assay [9]. In addition, the TGI was 65.3 µM in assay [1]; more than 100 µM in assay [2]; 74.6 µM in assay [3]; more than 100 µM in assay [4]; 29.7 µM in [5]; 27.8 µM in [6]. The TGI is more than 100 µM in assay [7], 32.7 µM in assay [8] and 18 µM in [9].
With `O=C1C=C(Nc2ccccc2)c2ccccc2C1=O`, the GI50 in assay [2] is 3.54 µM; in assay [3], 1.73 µM; in assay [4], 2.71 µM; in assay [5] it was 1.71 µM; in assay [6], 2.13 µM; in assay [7], 1.77 µM. Besides, the GI50 in [8] was 5.17 µM; in [9], 1.67 µM. The TGI in assay [2] amounted to 14.7 µM; in [3], 3.16 µM; in [4], 12.8 µM; in assay [5], 4.48 µM; in [6] it was 4.46 µM; in assay [7], 3.98 µM. Further, the TGI in [8] was determined as 18.9 µM; in [9], 3.36 µM.
`Cn1ncnc1[C@@H]1c2n[nH]c(=O)c3cc(F)cc(c23)N[C@H]1c1ccc(F)cc1`: the GI50 in [1] was more than 100 µM; in [2], 91.6 µM; in [3], more than 100 µM; in assay [4], more than 100 µM; in [5], 83.3 µM; in assay [6], more than 100 µM. In addition, the GI50 in [7], in assay [8] and in assay [9] was more than 100 µM throughout. Further, the TGI in [1], in assay [2], in assay [3], in assay [4], in assay [5] and in assay [6] was more than 100 µM in each case. In addition, the TGI in [7], in [8] and in [9] was more than 100 µM in each case.
`N#CCCNc1nonc1-c1nc2ccccc2n1CC(=O)c1ccc(N)cc1`: the GI50 was 0.0271 µM in assay [1]; 0.029 µM in assay [2]; 0.0289 µM in assay [3]; 0.0354 µM in assay [4]; 0.282 µM in assay [5]; 0.0351 µM in [6]. For the same molecule, the GI50 in assay [7] is 0.0334 µM; in [8], 0.0417 µM; in assay [9], less than 0.01 µM. Moreover, the TGI is more than 77.8 µM in assay [1]; more than 100 µM in assay [2]; 22.9 µM in [3]; more than 100 µM in [4]; more than 100 µM in assay [5]; more than 100 µM in assay [6]. The TGI was more than 100 µM in [7], more than 100 µM in [8] and less than 0.01 µM in assay [9].
As to `O=S(=O)(NCCCNc1cc(-c2cn(-c3ccccc3)nc2-c2cccc(O)c2)ccn1)c1ccc(C(F)(F)F)cc1`, the GI50 is 1.93 µM in [1]; 1.39 µM in [3]; 2.47 µM in assay [4]; 2.04 µM in assay [5]; 1.99 µM in assay [6]; 2.45 µM in assay [10]. In addition, the results for the GI50 in assay [7], in [8] and in assay [9] were 1.47 µM, 1.57 µM and 2.28 µM, respectively. For the same molecule, the TGI is 4.57 µM in assay [1]; 2.8 µM in [3]; 7.66 µM in assay [4]; 5.74 µM in assay [5]; 4.29 µM in [6]; 10.7 µM in assay [10]. The TGI in assay [7] worked out at 3.36 µM; in assay [8], 3.7 µM; in assay [9], 4.83 µM.
On to `Cn1cc(C2=C(c3ccsc3)C(=O)NC2=O)c2ccccc21`, for which the GI50 was more than 25 µM in [1]; more than 21.1 µM in assay [2]; more than 25 µM in [3]; more than 25 µM in assay [4]; 8.49 µM in [5]; more than 25 µM in assay [6]. For the same molecule, the GI50 in [7] was more than 22.7 µM; in assay [8], more than 25 µM; in assay [9] it was more than 25 µM. Also, the TGI in assay [1], in assay [2], in assay [3], in [4], in [5] and in [6] was more than 25 µM each time. Besides, the TGI in assay [7], in assay [8] and in assay [9] was more than 25 µM each time.
As to `C/C(=C\C(=O)O[C@H]1[C@@H]2[C@H](C)CC[C@H]2[C@]2(C)O[C@@]1(C1CCCCC1)C[C@H]2OC(=O)CO)c1ccccc1`, the GI50 is 5.05 µM in assay [1]; 7 µM in assay [2]; 0.12 µM in assay [3]; 4.27 µM in assay [4]; 6.78 µM in assay [6]; 6.46 µM in assay [10]. Besides, the GI50 in assay [7] is 6.81 µM; in [8] it was 5.11 µM; in assay [9] it was 6.55 µM. For the same molecule, the TGI in [1] was found to be 10.9 µM; in [2] it was 15.3 µM; in [3], 4.21 µM; in [4], 10.7 µM; in assay [6], 12.6 µM; in assay [10], 12.5 µM. For the same molecule, the values for the TGI in assay [7], in assay [8] and in [9] were 13 µM, 10.6 µM and 13.1 µM, respectively.
On to `O=C1NC(=O)C(c2c[nH]c3ccccc23)=C1c1c[nH]c2ccccc12`, for which the GI50 is 10.2 µM in [1]; 10.5 µM in [2]; 10.3 µM in [3]; 15.8 µM in assay [4]; 3.08 µM in [5]; 15.1 µM in assay [6]. The GI50 in assay [7] is 8.32 µM; in assay [8], more than 19.1 µM; in assay [9], 8.11 µM. In addition, the TGI in assay [1], in [2], in assay [3], in [4], in [5] and in [6] was more than 25 µM in each case. In addition, the TGI in [7], in [8] and in assay [9] was more than 25 µM in each case.
Turning to `CC[C@@]1(OP(=O)(O)O)C(=O)OCc2c1cc1n(c2=O)Cc2cc3ccccc3nc2-1`, the TGI in assay [2] is 0.118 µM and 0.319 µM; in [3] it was 4.55 µM; in assay [5], 0.625 µM and 1.03 µM; in [6] it was 57.7 µM; in assay [10] it was more than 100 µM; in assay [9], 3 µM and 1.88 µM. In addition, the GI50 in assay [4] was 0.427 µM; in [5] it was 0.099 µM; in assay [6], 1.86 µM; in assay [10] it was 2.13 µM; in assay [8], 0.0367 µM; in [9], 0.0688 µM.
Consider `C=CCc1cccc(C=O)c1O`, for which the GI50 in [1] was 5.86 µM; in assay [2] it was 4 µM; in [3], 10.4 µM; in [4] it was 39.5 µM; in [5], 70.1 µM; in assay [6], more than 100 µM. For the same molecule, the GI50 is 6.56 µM in assay [7], more than 100 µM in [8] and more than 100 µM in assay [9]. Also, the TGI in assay [1], in [2], in [3], in [4], in assay [5] and in assay [6] was more than 100 µM each time. Moreover, the TGI in assay [7], in assay [8] and in [9] was more than 100 µM in each case.
